For assay [1], the system named is cytosolic superoxide anion. Description: Superoxide anion in cell (cytoplasm), DHE. The note with it: human diploid fibroblast; 1 mM PQ 30 minutes; FIG. 24A. The assay is classed as cell-based. On the procedure:
The cell was treated with 1 mM of PQ for 30 minutes, and then was cultured at 37° C. for 15 minutes after adding oxidant-sensitive fluorescent dyes (A) DHE (5 uM, cytosol specific) and (B) MitoSOX (5 uM, mitochondria specific), respectively. For identifying the change of fluorescence, the excitation and emission wavelength of DHE were measured at 515 and 590 nm and MitoSOX was measured at 520 and 580 nm by using a multiwell plate reader. The results were indicated by calculating the results of three experiments as a control rate (%). The statistical significant was expressed as *, # p<0.005; ** p<0.05.
The cell was twice washed with DPBS and Ethidium-DNA that fluoresces was immediately measured at excitation wavelength 515 nm and emission wavelength 590 nm by using Cary Eclipse fluorescence spectrophotometer (Varian, Calif., USA) machine.

Another assay has as its system human diploid fibroblast. Description: Growth suppression of human diploid fibroblast by DDS (data not shown). In kind it is cell-based. To be noted: read-out: DDS concentration that can suppress 50% growth of human diploid fibroblast (1050).
The next assay relates to mitochondria complex V. As to the kind of experiment: Western blot of mitochondria complex V amount in C. elegans. To be noted: C. elegans treated with DDS; FIG. 8. In kind it is in vivo. On the procedure:
C. elegans was isolated and collected by using dense sucrose (Centrifugation) and was washed with S buffer solution to remove a contaminant. In order to isolate mitochondria, C. elegans was twice homogenized in MSM buffer solution (220 mM mannitol, 10 mM sucrose, 5 mM MOPS, pH 7.4, with KOH) containing 0.2% of BSA at 5000 rpm for 20 seconds by using Precellys24 Homogenizer (Medinova) and Glass bead. The residue and non-homogenized C. elegans were removed fro the homogenized C. elegans through a centrifuge (380 g, 5 min) by using MSM buffer solution. The precipitate of homogenous substance that was centrifuged at 4500 g for 5 minutes, i.e., mitochondria were prepared. The rest was prepared as a part of cytoplasm. […] The quantitation of protein was performed by using BCA protein detection kit (Pierce).
The lysates of C. elegans grown under appropriate condition (containing PABA alone or PABA and dapsone) were prepared. […] After transferring to a nitrocellulose, they were analyzed by using Western Blot using MS601 (subunit α of F1 of ATP synthase, Oxphos Complexes detection kit, Mitoscience, 1:1,000) and α-Tubulin (Sigma; 1:2,000) antibody. The result was detected by using ECL (Pierce) and a horseradish peroxidase-conjugated secondary antibody.

The next assay concerns pyruvate kinase. Description: Pyruvate kinase activity in vivo (worms that fed on DDS). Further details: species or system C. elegans. To be noted: FIG. 16B. On the procedure: (§1) PK activity was analyzed through the decrease degree of absorbance at 340 nm by using the change result from pyruvate and NADH to lactate and NAD by lactate dehydrogenase (LDH). The pyruvate and ATP used for the above process were produced from phosphoenolpyruvate (PEP) and ADP by PK. The analysis in vitro was measured by adding directly DDS along with PK to the above reaction mixture and the analysis in vivo was measured by adding worms that fed on DDS.
(§2) Samples were homogenized by rupturing C. elegans with glass bead Precellys 24 homogenizer, twice for 20 seconds, at 5000 rpm in a 100 mM potassium phosphate buffer, pH 7.6, at 37° C. A CHAPS was added to the homogenized sample to be 1% of the final concentration and then centrifuged at 15000 g for 20 minutes. The measurement of pyruvate kinase(PK) activity was performed at 37° C. by adding 300 uL of the reaction mixture contained 100 mM potassium phosphate buffer at pH 7.6 and 37° C., 100 mM MgSO4, 1.3 mM β-NADH, 5000 units/mL of lactate dehydrogenase (LDH), 2 mM adenosine diphosphate (ADP) and 17 mM phosphoenolpyruvate (PEP) into the sample. The change of oxidation degree of NADH was measured at 340 nm of absorbance. PK 1 unit was defined as the change into 1.0 umole of pyruvate per a minute at pH 7.6 and 37° C. […] Type I pyruvate kinase (Sigma) of rabbit muscle was used for in vitro experiment.

In the next assay the test system is SOD1. Description: Western blot of SOD1 amount in human diploid fibroblast. The assay is classed as cell-based. To be noted: various concentrations of DDS, FIG. 25B. Here is the method: Trolox that is well known as a water-soluble vitamin E was used as a positive control.
The isolated sample was transferred to a nitrocellulose and analyzed through Western Blot using MS601 (Total OXPHOS Complexes Detection Kit, MitoSciences, containing antibodies against SDH30 subunit of complex II (5 μg/ml), Core2 subunit of complex III (0.2 μg/ml), COXII subunit of complex IV (2 μg/ml), and subunit α of F1-ATPase of complex V (0.2 μg/ml)), PCKpan-p, PCKα/β-p, PKCδ-p (Phospho-PKC antibody Sampler Kit, Cell Signaling Technology), PKC α, PCKβ, PKCδ (Life Technologies), β-Actin (Sigma), and the like. The measurement was performed by using a horseradish […] secondary antibodies (Zymed) and ECL (Pierce). The results were shown through visualizing by using Autoradiographic film (Image Reader, LAS-3000Fujifilm, Japan).

Assay [2] has as its target T1, Type I pyruvate kinase of rabbit muscle (Oryctolagus cuniculus, UniProt P11974).
T1 construct: purchased Sigma; host or cells: rabbit muscle
Description: Pyruvate kinase activity in vitro (LDH-coupled, 340 nm). In kind it is biochemical. The note with it: DDS added directly along with PK; FIG. 16A. On the procedure: as §1, §2

The subject of another assay is pyruvate. Description: Pyruvate content in C. elegans (fluorescence-based assay kit). The note with it: C. elegans that fed on DDS; FIG. 17A. In kind it is in vivo. Here is the method: The measurement of pyruvate content was performed by using Fluorescence-based assay kit (BioVision) was purchased according to its instructions. […] Three measurements were performed.

Another assay concerns autophagy. As to the kind of experiment: Autophagy genes RT-PCR and GFP::lgg-1 immune blot in C. elegans. In kind it is in vivo. To be noted: after treating with DDS. Here is the method:
All the results are summarized from three independent experiments.
Total RNA was isolated by using TRI reagent available from MRC Company and first cDNA strain was synthesized by using Oligo-dT and Superscript II Reverse Transcriptase (available from Invitrogen Company). The gene amplification (PCR) was performed by using PCR Master Mix (Genenmed) and as the base sequence of the primer, ceDuox1; 5′-[…]-3′ (Forward Primer) and 5′-[…]-3′ (Reverse Primer), actin 5′-[…]-3′ (Forward Primer) and 5′-[…]-3′ (Reverse Primer) were used.
In addition, the gene related to the autophagy used the primer as follows: […]

Structures are written as SMILES.

T1 sequence (P11974 whole entry): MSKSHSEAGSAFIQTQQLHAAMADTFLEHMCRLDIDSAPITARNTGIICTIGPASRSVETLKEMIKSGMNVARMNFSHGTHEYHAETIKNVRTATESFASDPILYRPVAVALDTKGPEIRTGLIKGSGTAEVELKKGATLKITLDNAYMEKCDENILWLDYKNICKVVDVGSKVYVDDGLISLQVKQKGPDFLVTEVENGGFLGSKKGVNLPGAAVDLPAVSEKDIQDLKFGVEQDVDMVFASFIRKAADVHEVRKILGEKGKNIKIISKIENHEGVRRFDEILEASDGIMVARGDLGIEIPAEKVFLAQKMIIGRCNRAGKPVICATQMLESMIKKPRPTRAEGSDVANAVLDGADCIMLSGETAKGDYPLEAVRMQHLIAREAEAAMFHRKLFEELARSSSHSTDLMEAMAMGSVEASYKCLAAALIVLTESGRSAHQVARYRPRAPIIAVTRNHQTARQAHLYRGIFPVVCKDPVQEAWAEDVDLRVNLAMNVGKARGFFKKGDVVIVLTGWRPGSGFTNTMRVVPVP

As for `Nc1ccc(S(=O)(=O)c2ccc(N)cc2)cc1` [DDS, 4,4′-diaminodiphenylsulfone], the “superoxide anion of cytoplasm produced by PQ (DHE assay)” value in assay [1] was “reduced depending upon the concentration of DDS”. Besides, the IC50 with human diploid fibroblast is approximately 745 µM. Moreover, in the assay with mitochondria complex V, the “amount of complex V” value is listed as “significantly decreased”. Further, the “biochemical activity of PK in vivo” value in the assay on pyruvate kinase is “suppresses”. In addition, the “amount of SOD1” value in the assay on SOD1 is “decreases”. For the same compound, in assay [2], the “biochemical activity of PK in vitro” value is listed as “suppresses”. The “content of pyruvate compared with a control” value in the assay with pyruvate was “high content of pyruvate”. In the assay on autophagy (RT-PCR, FIG. 21A), the “genes relevant to the autophagy, transcription level” value was “not changed”. The “LGG-1 marker protein of the autophagy” value in the assay with autophagy (immune blot, FIG. 21B) is “not increased”.

The values are drawn from patent US20110152379A1, “COMPOSITION FOR CONTROL OF AGING AND/OR EXTENSION OF LIFE, CONTAINING DAPSONE AS ACTIVE INGREDIENT” (priority 2008, published 2011).
